The source of these data is paper PMC5737711 (ACS chemical neuroscience, 2017).

The target of assay [1] is CD36-Aβ interaction (recombinant extracellular domain of human CD36, fibrillar hAβ 1-42) (Homo sapiens, UniProt P16671). The experiment in a line: Colorimetric assay for inhibitors of Aβ-CD36 interaction. It counts as binding. Conditions: for Activity on the CD36-Aβ interaction (screen): first evaluated at 100 μM.
Another assay concerns N9 microglia cells. The following applies: cited from earlier work.
A further assay relates to CD36-Aβ interaction. The following applies: cited from earlier work.

Chain of CD36-Aβ interaction (recombinant extracellular domain of human CD36, fibrillar hAβ 1-42) (P16671 30-439): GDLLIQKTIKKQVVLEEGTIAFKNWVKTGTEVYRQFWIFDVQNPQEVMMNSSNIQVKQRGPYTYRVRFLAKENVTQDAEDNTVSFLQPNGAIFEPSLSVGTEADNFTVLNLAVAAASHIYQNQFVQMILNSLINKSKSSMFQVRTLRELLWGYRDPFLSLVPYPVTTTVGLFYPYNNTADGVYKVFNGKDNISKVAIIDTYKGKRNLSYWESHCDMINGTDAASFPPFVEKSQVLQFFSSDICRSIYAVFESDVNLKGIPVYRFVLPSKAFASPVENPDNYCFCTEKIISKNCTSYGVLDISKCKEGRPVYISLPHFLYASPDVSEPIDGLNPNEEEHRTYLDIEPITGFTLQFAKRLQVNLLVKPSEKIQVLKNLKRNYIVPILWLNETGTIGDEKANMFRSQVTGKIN

`COc1ccc2cc(NC(=O)C3=NO[C@H]4[C@H](O)C=C[C@@H](Cl)[C@@]4(O)C3)c(=O)oc2c1OC` [Compound 2, Trichodermamide B]: the “Activity on the CD36-Aβ interaction (screen)” value in assay [1] is “lacked activity”.

Turning to `C[C@H]1[C@H](C)CC[C@]2(C(=O)O)CC[C@]3(C)C(=CC[C@@H]4[C@@]5(C)CC[C@H](O)C(C)(C)[C@@H]5CC[C@]43C)[C@H]12` [ursolic acid], the “Effect on production of ROS induced by Aβ” value in the assay with N9 microglia cells is “inhibits the production of ROS”. For the same molecule, the “Inhibition of CD36-Aβ interaction in a cell-based assay” value in the assay with CD36-Aβ interaction is on record as “inhibitor of CD36-Aβ interaction”. Besides, the “Mode of inhibition of the interaction CD36-Aβ” value in assay [1] (from dose response profile) was “competitive inhibitor”.

Regarding `COc1ccc2cc(NC(=O)C3=NO[C@H]4[C@H](O)C=C[C@@H](O)[C@@]4(O)C3)c(=O)oc2c1OC` [Compound 1, Trichodermamide A], in assay [1], the “Activity on the CD36-Aβ interaction (screen)” value is listed as “lacked activity”.
